Measured values from US10253355B2, “Instrument and system for rapid microorganism identification and antimicrobial agent susceptibility testing” (Accelerate Diagnostics, Inc., priority 2015, dated 2019).
Read-outs that look alike come from different tables or passages of the source.

Legend:
[1] = system: Pseudomonas aeruginosa ATCC 27853; assay: AST QC assay on AD-1 instrument, QC isolate P. aeruginosa ATCC 27853; assay type: cell-based
From the text: (§1) The reportable range for the AST QC assay in some examples are adjusted such that the selected QC isolates have an MIC that is within the reportable range of the QC Assay. These extended ranges are only applied to QC testing and are not applied to AST assessment of patient samples. The process for assigning an MIC value to the QC organisms is the same or similar to that used for patient samples. […] This approach allows testing of, for example, CLSI recommended QC isolates without affecting the algorithms that are optimized around antimicrobial breakpoints. The algorithms used in ID QC or AST QC testing include those described above, for example, when the QC test samples are microbial isolates. For ID QC testing utilizing target microbial nucleic acids coupled to a bead, positive detection is achieved by comparing the cumulative count in the target (e.g., Green fluorescence channel) only against a threshold of objects that have brightness exceeding bead autofluorescence. Negative control detection is achieved by doing the same for eubacteria (e.g., Red fluorescence) channel only. For example, the number of bright red objects should not exceed a threshold in order to pass negative control.
(§2) The results of the identification assay drive antibiotic selection for antimicrobial susceptibility testing. The remaining samples undergo a pre-growth step to normalize growth rates during the approximately 1-hour FISH ID assay. The concentration of organisms in the purified inoculum was determined by repeating the quantitation process with a universal nucleic acid stain as previously described herein. […] Following cell immobilization, antimicrobial solutions in Mueller-Hinton agar were dispensed into the flowcells. Different antimicrobials were tested in separate flowcells, and only a single concentration of each antimicrobial was used. A growth control consisting of Mueller-Hinton agar without any antimicrobial was included for each run. A dark-field microscope and camera produced time-lapse images approximately every 10 minutes of progenitor cells growing into clones of daughter cells in each flowcell. The agar ensured daughter cells were immobilized and remained localized to each growing clone. Resistant clones grew while susceptible clones arrest or lyse over time (FIG. 90).
(§3) Custom image analysis software assigned unique spatial XY coordinates to individual progenitor cells (FIG. 91), allowing each growing clone across a series of time-lapse images to be identified. The intensity of each clone can be used as a metric of clone mass in each image. By measuring over time, this metric was used to generate growth curves for each individual clone (FIG. 92). The pattern of cell responses was used to determine the susceptibility of the overall population. Computer algorithms developed for each organism-antimicrobial combination convert microbial growth response into an MIC value using a mathematical regression model based on the response of isolates with known MICs for a single-concentration of a given antimicrobial. Once obtained, MIC values were interpreted using FDA, CLSI or EUCAST breakpoints along with expert rules to determine the categorical result (susceptible (S), intermediate (I) or resistant (R)). In addition to MICs, this technique was applied to phenotypic resistance mechanism detection.
(§4) In this example, the AST QC consumable insert consisted of 8 wells configured in a “pi” shape, as shown in the dark gray shading in FIG. 109. The AST QC panel was composed of seven CLSI recommended isolates that provide “on-scale” MIC results for all of the antimicrobial agents included in a sample blood culture test. A C. albicans isolate was used for Quality Control assessment of the […] component of the AD-1 Instrument System.
(§5) Table 9 below lists each organism and the corresponding antimicrobial agent that was tested in the AST QC assay. […]

[2] = system: Pseudomonas aeruginosa ATCC 27853; details: cited from earlier work; for Organism QC Range (MIC): AST QC panel (Table 9), CLSI recommended isolate P. aeruginosa ATCC 27853; for Expected (MIC acceptance range): P. aeruginosa ATCC 27853
[3] = system: Enterococcus faecalis ATCC 29212; assay: AST QC assay on AD-1 instrument, QC isolate E. faecalis ATCC 29212; assay type: cell-based; details: unit assumed
From the text: as §1, §2, §3, §4, §5

[4] = system: Enterococcus faecalis ATCC 29212; details: cited from earlier work; for Organism QC Range (MIC): AST QC panel (Table 9), CLSI recommended isolate E. faecalis ATCC 29212; for Expected (MIC acceptance range): E. faecalis ATCC 29212
[5] = system: Escherichia coli ATCC 25922; details: in µg/mL (unit assumed), cited from earlier work; for Organism QC Range (MIC): AST QC panel (Table 9), CLSI recommended isolate E. coli ATCC 25922; for Expected (MIC acceptance range): E. coli ATCC 25922
[6] = system: Escherichia coli ATCC 25922; assay: AST QC assay on AD-1 instrument, QC isolate E. coli ATCC 25922; assay type: cell-based; details: unit assumed
From the text: as §1, §2, §3, §4, §5

[7] = AST only report (Table 10), in µg/mL (unit assumed)
[8] = ID and AST report (Table 11), in µg/mL (unit assumed)

| Molecule | Result (MIC value) ([1]; AST only report (Table 10)) [µg/mL] | Result (MIC value) ([1]; ID and AST report (Table 11)) [µg/mL] | Organism QC Range (MIC) ([2]; in µg/mL (unit assumed)) | Expected (MIC acceptance range) [2, 7] | Expected (MIC acceptance range) [2, 8] | Result (MIC value) ([3]; AST only report (Table 10)) [µg/mL] | other results |
| --- | --- | --- | --- | --- | --- | --- | --- |
| NCC[C@H](O)C(=O)N[C@@H]1C[C@H](N)[C@@H](O[C@H]2O[C@H](CN)[C@@H](O)[C@H](O)[C@H]2O)[C@H](O)[C@H]1O[C@H]1O[C@H](CO)[C@@H](O)[C@H](N)[C@H]1O [Amikacin] | 2 | 2 | 1-4 | 1-4 | 1-4 |  |  |
| CC1(C)S[C@@H]2[C@H](NC(=O)[C@H](N)c3ccccc3)C(=O)N2[C@H]1C(=O)O [Ampicillin] |  |  |  |  |  | 1 | Organism QC Range (MIC) ([4]; in µg/mL (unit assumed)): 0.5-2; Expected (MIC acceptance range) ([4]; AST only report (Table 10)): 0.5-2^ |
| C[C@H]1[C@H](NC(=O)/C(=N\OC(C)(C)C(=O)O)c2csc(N)n2)C(=O)N1S(=O)(=O)O [Aztreonam] | 4 | 4 | 2-8 | 2-8 | 2-8 |  |  |
| Cc1nnc(SCC2=C(C(=O)O)N3C(=O)[C@@H](NC(=O)Cn4cnnn4)[C@H]3SC2)s1 [Cefazolin] |  |  |  |  |  |  | Organism QC Range (MIC) [5]: 1-4; Expected (MIC acceptance range) ([5]; AST only report (Table 10)): 1-4; Result (MIC value) ([6]; AST only report (Table 10)): 2 µg/mL |
| CO/N=C(\C(=O)N[C@@H]1C(=O)N2C(C(=O)[O-])=C(C[N+]3(C)CCCC3)CS[C@H]12)c1csc(N)n1 [Cefepime] | 2 | 2 | 0.5-4 |  |  |  | Expected (MIC acceptance range) ([2]; AST only report (Table 10)): 0.5-4^; Expected (MIC acceptance range) ([2]; ID and AST report (Table 11)): 0.5-4^ |
| CCO/N=C(\C(=O)N[C@@H]1C(=O)N2C(C(=O)[O-])=C(Sc3nc(-c4cc[n+](C)cc4)cs3)CS[C@H]12)c1nsc(N)n1 [Ceftaroline] |  |  |  |  |  | 1 | Result (MIC value) ([3]; ID and AST report (Table 11)): 1 µg/mL |
| CC(C)(O/N=C(\C(=O)N[C@@H]1C(=O)N2C(C(=O)[O-])=C(C[n+]3ccccc3)CS[C@H]12)c1csc(N)n1)C(=O)O [Ceftazidime] |  |  |  |  |  |  | Organism QC Range (MIC) [5]: 1-4; Expected (MIC acceptance range) ([5]; AST only report (Table 10)): 0.06-0.5; Expected (MIC acceptance range) ([5]; ID and AST report (Table 11)): 0.06-0.5; Result (MIC value) ([6]; AST only report (Table 10)): 0.25 µg/mL; Result (MIC value) ([6]; ID and AST report (Table 11)): 0.25 µg/mL |
| CO/N=C(\C(=O)N[C@@H]1C(=O)N2C(C(=O)O)=C(CSc3nc(=O)c(=O)[nH]n3C)CS[C@H]12)c1csc(N)n1 [Ceftriaxone] |  |  |  |  |  |  | Organism QC Range (MIC) [5]: 0.03-0.12; Expected (MIC acceptance range) ([5]; AST only report (Table 10)): 0.03-0.125; Expected (MIC acceptance range) ([5]; ID and AST report (Table 11)): 0.03-0.125; Result (MIC value) ([6]; AST only report (Table 10)): 0.0525 µg/mL; Result (MIC value) ([6]; ID and AST report (Table 11)): 0.0525 µg/mL |
| O=C(O)c1cn(C2CC2)c2cc(N3CCNCC3)c(F)cc2c1=O [Ciprofloxacin] | 0.5 | 0.5 |  | 0.25-1 | 0.25-1 |  |  |
| CCCCCCCCCC(=O)N[C@@H](Cc1c[nH]c2ccccc12)C(=O)N[C@H](CC(N)=O)C(=O)N[C@@H](CC(=O)O)C(=O)N[C@@H]1C(=O)NCC(=O)N[C@@H](CCCN)C(=O)N[C@@H](CC(=O)O)C(=O)N[C@H](C)C(=O)N[C@@H](CC(=O)O)C(=O)NCC(=O)N[C@H](CO)C(=O)N[C@@H]([C@H](C)CC(=O)O)C(=O)N[C@@H](CC(=O)c2ccccc2N)C(=O)O[C@@H]1C [Daptomycin] |  |  |  |  |  | 2 | Result (MIC value) ([3]; ID and AST report (Table 11)): 2 µg/mL; Organism QC Range (MIC) ([4]; in µg/mL (unit assumed)): 1-4; Expected (MIC acceptance range) [4, 7]: 1-4; Expected (MIC acceptance range) [4, 8]: 1-4 |
| C[C@H]1c2cccc(O)c2C(=O)C2=C(O)[C@]3(O)C(=O)C(C(N)=O)=C(O)[C@@H](N(C)C)[C@@H]3[C@@H](O)[C@@H]21 [Doxycycline] |  |  |  |  |  | 4 | Result (MIC value) ([3]; ID and AST report (Table 11)): 4 µg/mL |
| C[C@@H](O)[C@H]1C(=O)N2C(C(=O)O)=C(S[C@@H]3CN[C@H](C(=O)Nc4cccc(C(=O)O)c4)C3)[C@H](C)[C@H]12 [Ertapenem] | 4 | 4 | 2-8 | 2-8 | 2-8 |  |  |
| CC(=O)NC[C@H]1CN(c2ccc(N3CCOCC3)c(F)c2)C(=O)O1 [Linezolid] |  |  |  |  |  | 2 | Result (MIC value) ([3]; ID and AST report (Table 11)): 2 µg/mL; Organism QC Range (MIC) ([4]; in µg/mL (unit assumed)): 1-4; Expected (MIC acceptance range) [4, 7]: 1-4; Expected (MIC acceptance range) [4, 8]: 1-4 |
| C[C@@H](O)[C@H]1C(=O)N2C(C(=O)O)=C(S[C@@H]3CN[C@H](C(=O)N(C)C)C3)[C@H](C)[C@H]12 [Meropenem] | 0.5 | 0.5 | 0.25-1 | 0.25-1 | 0.25-1 |  |  |
| CN(C)c1ccc(O)c2c1C[C@H]1C[C@H]3[C@H](N(C)C)C(O)=C(C(N)=O)C(=O)[C@@]3(O)C(O)=C1C2=O [Minocycline] |  |  |  |  |  |  | Result (MIC value) ([6]; AST only report (Table 10)): 0.5 µg/mL; Result (MIC value) ([6]; ID and AST report (Table 11)): 0.5 µg/mL |
| NC[C@H]1O[C@H](O[C@H]2[C@H](O)[C@@H](O[C@H]3O[C@H](CO)[C@@H](O)[C@H](N)[C@H]3O)[C@H](N)C[C@@H]2N)[C@H](N)C[C@@H]1O [Tobramycin] | 0.5 | 0.5 | 0.25-1 | 0.25-1 | 0.25-1 |  |  |
| CN[C@H](CC(C)C)C(=O)N[C@H]1C(=O)N[C@@H](CC(N)=O)C(=O)N[C@H]2C(=O)N[C@H]3C(=O)N[C@H](C(=O)N[C@H](C(=O)O)c4cc(O)cc(O)c4-c4cc3ccc4O)[C@H](O)c3ccc(c(Cl)c3)Oc3cc2cc(c3O[C@@H]2O[C@H](CO)[C@@H](O)[C@H](O)[C@H]2O[C@H]2C[C@](C)(N)[C@H](O)[C@H](C)O2)Oc2ccc(cc2Cl)[C@H]1O [Vancomycin] |  |  |  |  |  | 2 | Result (MIC value) ([3]; ID and AST report (Table 11)): 2 µg/mL; Organism QC Range (MIC) ([4]; in µg/mL (unit assumed)): 0.5-2; Expected (MIC acceptance range) [4, 7]: 1-4; Expected (MIC acceptance range) [4, 8]: 1-4 |
| Colistin | 2 | 2 | 0.5-4 |  |  |  | Expected (MIC acceptance range) ([2]; AST only report (Table 10)): 0.5-4^; Expected (MIC acceptance range) ([2]; ID and AST report (Table 11)): 0.5-4^ |
| Gentamicin | 1 | 1 | 0.5-2 |  |  |  | Expected (MIC acceptance range) ([2]; AST only report (Table 10)): 0.5-2^; Expected (MIC acceptance range) ([2]; ID and AST report (Table 11)): 0.5-2^ |
